Laboratory results published in ChEMBL document CHEMBL3436046, “Predictive model for L-type channel inhibition: multichannel block in QT prolongation risk assessment” (J Appl Toxicol, 2012).

Assays:
[1] = biological target: T1, Voltage-dependent L-type calcium channel subunit alpha-1C (Rattus norvegicus, UniProt P22002); assay: (§1) Inhibition of L-type calcium channel measured using whole-cell patch clamp in rat ventricular myocytes; format: functional, cell-based, Heart, Ventricular myocyte; set-up: ca sol conc 1 mM, temp 1 C
T1 sequence (P22002 whole entry): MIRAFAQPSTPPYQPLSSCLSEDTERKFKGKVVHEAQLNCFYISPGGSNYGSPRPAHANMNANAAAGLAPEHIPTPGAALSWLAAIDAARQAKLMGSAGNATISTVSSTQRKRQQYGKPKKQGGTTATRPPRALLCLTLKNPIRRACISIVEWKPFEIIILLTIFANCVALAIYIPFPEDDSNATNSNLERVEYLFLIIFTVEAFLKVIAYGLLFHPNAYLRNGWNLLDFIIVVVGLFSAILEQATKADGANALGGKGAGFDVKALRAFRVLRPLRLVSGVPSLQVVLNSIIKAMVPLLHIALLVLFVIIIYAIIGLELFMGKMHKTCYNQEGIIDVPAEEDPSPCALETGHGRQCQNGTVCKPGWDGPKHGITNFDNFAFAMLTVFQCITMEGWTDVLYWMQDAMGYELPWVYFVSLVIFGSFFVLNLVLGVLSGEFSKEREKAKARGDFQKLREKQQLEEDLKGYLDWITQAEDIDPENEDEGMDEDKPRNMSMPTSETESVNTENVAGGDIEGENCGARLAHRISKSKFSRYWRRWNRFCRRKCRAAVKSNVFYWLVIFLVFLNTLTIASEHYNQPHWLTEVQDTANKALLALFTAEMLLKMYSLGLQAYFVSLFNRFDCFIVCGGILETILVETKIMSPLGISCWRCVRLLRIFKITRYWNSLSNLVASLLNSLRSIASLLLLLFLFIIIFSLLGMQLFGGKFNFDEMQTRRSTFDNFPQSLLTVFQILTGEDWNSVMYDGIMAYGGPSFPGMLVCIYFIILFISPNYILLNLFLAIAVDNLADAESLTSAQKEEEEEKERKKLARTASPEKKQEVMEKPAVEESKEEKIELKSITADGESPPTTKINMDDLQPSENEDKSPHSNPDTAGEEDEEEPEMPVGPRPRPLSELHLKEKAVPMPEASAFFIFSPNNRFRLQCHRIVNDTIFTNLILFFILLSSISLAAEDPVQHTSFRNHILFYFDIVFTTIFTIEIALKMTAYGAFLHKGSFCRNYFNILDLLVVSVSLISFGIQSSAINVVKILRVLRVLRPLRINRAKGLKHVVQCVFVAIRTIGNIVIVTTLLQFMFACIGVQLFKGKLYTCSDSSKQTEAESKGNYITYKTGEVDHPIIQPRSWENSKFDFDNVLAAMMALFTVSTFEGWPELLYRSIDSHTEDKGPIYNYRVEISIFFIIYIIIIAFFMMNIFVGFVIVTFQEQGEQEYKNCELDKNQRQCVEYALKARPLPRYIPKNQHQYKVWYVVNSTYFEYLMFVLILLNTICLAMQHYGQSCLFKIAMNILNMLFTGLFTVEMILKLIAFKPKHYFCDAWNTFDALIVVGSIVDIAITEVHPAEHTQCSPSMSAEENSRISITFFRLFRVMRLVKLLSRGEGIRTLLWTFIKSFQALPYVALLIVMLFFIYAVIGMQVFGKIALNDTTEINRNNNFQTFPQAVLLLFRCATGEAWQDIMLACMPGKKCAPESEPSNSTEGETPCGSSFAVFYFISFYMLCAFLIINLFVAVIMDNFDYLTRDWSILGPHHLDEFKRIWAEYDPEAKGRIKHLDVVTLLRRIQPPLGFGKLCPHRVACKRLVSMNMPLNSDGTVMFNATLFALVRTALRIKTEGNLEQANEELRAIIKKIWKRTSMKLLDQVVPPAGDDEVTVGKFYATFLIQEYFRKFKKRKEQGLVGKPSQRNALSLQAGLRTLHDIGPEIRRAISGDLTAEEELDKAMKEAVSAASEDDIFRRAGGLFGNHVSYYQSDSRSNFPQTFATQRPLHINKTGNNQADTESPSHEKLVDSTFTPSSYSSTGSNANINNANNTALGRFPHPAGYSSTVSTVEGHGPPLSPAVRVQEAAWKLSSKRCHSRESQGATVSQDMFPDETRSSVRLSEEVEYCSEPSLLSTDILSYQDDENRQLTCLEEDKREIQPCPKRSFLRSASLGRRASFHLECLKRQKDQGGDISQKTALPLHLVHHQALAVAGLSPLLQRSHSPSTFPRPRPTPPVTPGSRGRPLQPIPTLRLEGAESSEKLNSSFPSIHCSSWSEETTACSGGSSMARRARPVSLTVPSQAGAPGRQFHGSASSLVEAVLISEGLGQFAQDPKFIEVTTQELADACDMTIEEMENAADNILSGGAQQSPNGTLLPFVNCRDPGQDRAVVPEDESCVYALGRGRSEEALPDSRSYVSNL

[2] = biological target: T2, Voltage-dependent L-type calcium channel subunit alpha-1C (Cavia porcellus, UniProt O35505); assay: (§2) Inhibition of L-type calcium channel measured using whole-cell patch clamp in guinea pig ventricular myocytes; format: functional, cell-based, Heart, Ventricular myocyte; set-up: ca sol conc 1.8 mM, temp 20-25 C
T2 sequence (O35505 whole entry): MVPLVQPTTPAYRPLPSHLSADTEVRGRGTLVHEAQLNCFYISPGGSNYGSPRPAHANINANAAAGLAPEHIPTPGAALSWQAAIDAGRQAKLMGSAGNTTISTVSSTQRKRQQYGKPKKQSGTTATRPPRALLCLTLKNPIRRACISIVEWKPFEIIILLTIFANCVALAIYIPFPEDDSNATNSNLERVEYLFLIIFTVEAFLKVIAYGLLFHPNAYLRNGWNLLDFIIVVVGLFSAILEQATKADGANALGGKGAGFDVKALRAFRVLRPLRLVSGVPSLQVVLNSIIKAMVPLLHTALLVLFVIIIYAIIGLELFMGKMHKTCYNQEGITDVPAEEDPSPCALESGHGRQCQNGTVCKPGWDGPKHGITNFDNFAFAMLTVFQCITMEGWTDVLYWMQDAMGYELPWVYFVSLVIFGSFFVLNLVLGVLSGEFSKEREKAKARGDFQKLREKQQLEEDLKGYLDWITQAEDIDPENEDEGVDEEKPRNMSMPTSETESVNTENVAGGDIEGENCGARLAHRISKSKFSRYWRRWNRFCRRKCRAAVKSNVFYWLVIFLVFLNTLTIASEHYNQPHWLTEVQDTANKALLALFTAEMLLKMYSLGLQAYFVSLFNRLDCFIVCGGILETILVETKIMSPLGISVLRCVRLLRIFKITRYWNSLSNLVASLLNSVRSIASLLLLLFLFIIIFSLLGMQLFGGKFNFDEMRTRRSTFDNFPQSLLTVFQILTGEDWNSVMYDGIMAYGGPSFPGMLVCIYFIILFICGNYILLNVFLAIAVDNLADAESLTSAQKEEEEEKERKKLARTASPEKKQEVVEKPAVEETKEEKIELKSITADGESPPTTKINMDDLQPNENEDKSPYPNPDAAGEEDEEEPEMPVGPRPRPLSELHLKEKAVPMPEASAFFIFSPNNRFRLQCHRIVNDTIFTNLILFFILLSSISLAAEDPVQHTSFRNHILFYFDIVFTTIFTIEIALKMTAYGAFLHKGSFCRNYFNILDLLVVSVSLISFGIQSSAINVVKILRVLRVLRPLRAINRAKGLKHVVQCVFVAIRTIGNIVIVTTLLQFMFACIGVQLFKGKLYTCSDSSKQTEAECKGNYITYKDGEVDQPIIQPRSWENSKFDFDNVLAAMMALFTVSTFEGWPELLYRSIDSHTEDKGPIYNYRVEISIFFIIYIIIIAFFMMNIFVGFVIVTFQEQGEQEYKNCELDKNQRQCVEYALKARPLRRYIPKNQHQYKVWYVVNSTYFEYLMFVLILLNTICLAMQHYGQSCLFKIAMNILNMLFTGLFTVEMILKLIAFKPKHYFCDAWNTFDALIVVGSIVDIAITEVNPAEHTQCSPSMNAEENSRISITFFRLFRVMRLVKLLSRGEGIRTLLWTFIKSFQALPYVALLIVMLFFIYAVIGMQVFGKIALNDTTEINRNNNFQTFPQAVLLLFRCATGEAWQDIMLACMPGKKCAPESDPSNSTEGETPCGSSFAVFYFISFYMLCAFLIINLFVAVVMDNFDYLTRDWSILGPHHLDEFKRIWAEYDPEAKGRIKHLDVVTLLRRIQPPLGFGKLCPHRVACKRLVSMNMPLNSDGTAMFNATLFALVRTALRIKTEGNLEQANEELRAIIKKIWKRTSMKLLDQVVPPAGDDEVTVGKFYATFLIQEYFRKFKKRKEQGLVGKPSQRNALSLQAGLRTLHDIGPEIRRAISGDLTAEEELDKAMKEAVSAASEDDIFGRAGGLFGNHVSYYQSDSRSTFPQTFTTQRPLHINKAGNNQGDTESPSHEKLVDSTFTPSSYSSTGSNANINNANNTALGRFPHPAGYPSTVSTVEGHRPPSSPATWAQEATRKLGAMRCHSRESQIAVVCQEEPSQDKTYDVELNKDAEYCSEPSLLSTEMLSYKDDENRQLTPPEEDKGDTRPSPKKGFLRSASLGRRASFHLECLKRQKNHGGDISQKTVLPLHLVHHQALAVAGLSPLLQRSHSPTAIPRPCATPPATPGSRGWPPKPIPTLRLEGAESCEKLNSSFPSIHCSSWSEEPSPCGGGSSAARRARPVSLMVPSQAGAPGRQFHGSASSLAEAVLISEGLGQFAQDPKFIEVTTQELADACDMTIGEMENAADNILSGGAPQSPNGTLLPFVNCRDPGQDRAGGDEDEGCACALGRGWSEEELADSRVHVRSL

[3] = biological target: T1, Voltage-dependent L-type calcium channel subunit alpha-1C; assay: as §1; format: functional, cell-based, Heart, Ventricular myocyte; set-up: ca sol conc 1.8 mM, temp room
[4] = biological target: T1, Voltage-dependent L-type calcium channel subunit alpha-1C; assay: as §1; format: functional, cell-based, Heart, Ventricular myocyte; set-up: ca sol conc 2 mM, temp 36-37 C
[5] = biological target: T1, Voltage-dependent L-type calcium channel subunit alpha-1C; assay: as §1; format: functional, cell-based, Heart, Ventricular myocyte; set-up: ca sol conc 2 mM, temp 36-37 C; remark: listed apart in the source
[6] = biological target: T3, Voltage-dependent L-type calcium channel subunit alpha-1C (Homo sapiens, UniProt Q13936); assay: (§3) Inhibition of L-type calcium channel measured using […] kidney cells heterologically expressing alpha-1C subunit; format: functional, cell-based, HEK293; set-up: ca sol conc 0 mM, temp 21-24 C
[7] = biological target: T3, Voltage-dependent L-type calcium channel subunit alpha-1C; assay: as §3; format: functional, cell-based, HEK293; set-up: ca sol conc 0 mM, temp 21-24 C; remark: listed apart in the source
[8] = biological target: T2, Voltage-dependent L-type calcium channel subunit alpha-1C; assay: as §2; format: functional, cell-based, Heart, Ventricular myocyte; set-up: ca sol conc None mM, temp 36 C
[9] = biological target: T2, Voltage-dependent L-type calcium channel subunit alpha-1C; assay: as §2; format: functional, cell-based, Heart, Ventricular myocyte; set-up: ca sol conc 1.8 mM, temp 36 C
[10] = biological target: T2, Voltage-dependent L-type calcium channel subunit alpha-1C; assay: as §2; format: functional, cell-based, Heart, Ventricular myocyte; set-up: ca sol conc 1 mM, temp room
[11] = biological target: T2, Voltage-dependent L-type calcium channel subunit alpha-1C; assay: as §2; format: functional, cell-based, Heart, Ventricular myocyte; set-up: ca sol conc 1 mM, temp room; remark: listed apart in the source
[12] = biological target: T3, Voltage-dependent L-type calcium channel subunit alpha-1C; assay: as §3; format: functional, cell-based, HEK293; set-up: ca sol conc 0 mM, temp 37 C
[13] = biological target: T2, Voltage-dependent L-type calcium channel subunit alpha-1C; assay: as §2; format: functional, cell-based, Heart, Ventricular myocyte; set-up: ca sol conc 2 mM, temp room
[14] = biological target: T1, Voltage-dependent L-type calcium channel subunit alpha-1C; assay: as §1; format: functional, cell-based, Heart, Ventricular myocyte; set-up: ca sol conc 1 mM, temp 20-24 C
[15] = biological target: T1, Voltage-dependent L-type calcium channel subunit alpha-1C; assay: as §1; format: functional, cell-based, Heart, Ventricular myocyte; set-up: ca sol conc 0 mM, temp room
[16] = biological target: T2, Voltage-dependent L-type calcium channel subunit alpha-1C; assay: as §2; format: functional, cell-based, Heart, Ventricular myocyte; set-up: ca sol conc 0 mM, temp 36 C
[17] = biological target: T2, Voltage-dependent L-type calcium channel subunit alpha-1C; assay: as §2; format: functional, cell-based, Heart, Ventricular myocyte; set-up: ca sol conc 1 mM, temp 20 C
[18] = biological target: T2, Voltage-dependent L-type calcium channel subunit alpha-1C; assay: as §2; format: functional, cell-based, Heart, Ventricular myocyte; set-up: ca sol conc 2 mM, temp 22-26 C
[19] = biological target: T3, Voltage-dependent L-type calcium channel subunit alpha-1C; assay: Inhibition of L-type calcium channel measured using […] ovary cells heterologically expressing alpha-1C subunit; format: functional, cell-based, Cricetulus griseus, CHO; set-up: ca sol conc 0 mM, temp room
[20] = biological target: T3, Voltage-dependent L-type calcium channel subunit alpha-1C; assay: (§4) Inhibition of L-type calcium channel measured using 2-electrode voltage-clamp in Xenopus oocyte heterologically expressing alpha-1C subunit; format: functional, cell-based; set-up: ca sol conc 0 mM, temp room
[21] = biological target: T3, Voltage-dependent L-type calcium channel subunit alpha-1C; assay: as §4; format: functional, cell-based; set-up: ca sol conc 0 mM, temp room; remark: listed apart in the source
[22] = biological target: T2, Voltage-dependent L-type calcium channel subunit alpha-1C; assay: as §2; format: functional, cell-based, Heart, Ventricular myocyte; set-up: ca sol conc 1.8 mM, temp 36-37 C
[23] = biological target: T1, Voltage-dependent L-type calcium channel subunit alpha-1C; assay: as §1; format: functional, cell-based, Heart, Ventricular myocyte; set-up: ca sol conc 1 mM, temp 21-23 C
[24] = biological target: T1, Voltage-dependent L-type calcium channel subunit alpha-1C; assay: as §1; format: functional, cell-based, Heart, Ventricular myocyte; set-up: ca sol conc 1 mM, temp 21-23 C; remark: listed apart in the source
[25] = biological target: T2, Voltage-dependent L-type calcium channel subunit alpha-1C; assay: as §2
[26] = biological target: T2, Voltage-dependent L-type calcium channel subunit alpha-1C; assay: as §2; format: functional, cell-based, Heart, Ventricular myocyte; set-up: ca sol conc 2 mM, temp 35.5-36.5 C

COc1ccc(C(C)=O)c(O)c1 [PAEONOL]
IC50 [1]: 561 µM

Fc1ccc(C(OCCN2CCN(CCCc3ccccc3)CC2)c2ccc(F)cc2)cc1 [VANOXERINE]
IC50 [2]: 0.32 µM

CCCC[N+]1(CCCC(=O)c2ccc(F)cc2)CCC(O)(c2ccc(Cl)cc2)CC1 (stereo not drawn)
IC50 [3]: 0.17 µM

CCCCC/C=C\C/C=C\C/C=C\C/C=C\CCCC(=O)O [ARACHIDONIC ACID]
IC50 [4]: 5.8 µM
IC50 [5]: 8.5 µM

C[C@]12CC[C@H]3[C@@H](CCC4=CC(=O)CC[C@@]43C)[C@@H]1CC[C@@H]2O [TESTOSTERONE]
IC50 [6]: 0.0384 µM
IC50 [7]: 0.034 µM

COC(=O)C1=C(C)NC(C)=C(C(=O)OCC(C)C)C1c1ccccc1[N+](=O)[O-] (stereo not drawn) [NISOLDIPINE]
IC50 [8]: 0.73 µM
IC50 [9]: 0.08 µM

CCCC(=O)OCOC(=O)C1=C(C)NC(C)=C(C(=O)OC)C1c1cccc(Cl)c1Cl (stereo not drawn) [CLEVIDIPINE]
IC50 [10]: 0.0788 µM
IC50 [11]: 0.0071 µM

C[C@]12CC[C@@H]3c4ccc(O)cc4CC[C@H]3[C@@H]1CC[C@@H]2O [ESTRADIOL]
IC50 [12]: 50 µM

CCN(CC)CC#CCOC(=O)C(O)(c1ccccc1)C1CCCCC1 (stereo not drawn) [OXYBUTYNIN]
IC50 [9]: 16.1 µM

COc1ccc([C@@H]2Sc3ccccc3N(CCN(C)CCc3ccc(OC)c(OC)c3)C(=O)[C@@H]2OC(C)=O)cc1
IC50 [13]: 0.0257 µM

CN(C)CCN1C(=O)c2ccccc2N(C)c2ccccc21 [DIBENZEPIN]
IC50 [14]: 364 µM

O=C(O)Cc1ccccc1Nc1c(Cl)cccc1Cl [DICLOFENAC]
IC50 [15]: 12.9 µM

Cc1cccc(C)c1N(CCCc1cccnc1)C(=O)[C@@H](C)N
IC50 [16]: 55 µM

CC(NCCC(c1ccccc1)c1ccccc1)c1ccccc1 (stereo not drawn) [FENDILINE]
IC50 [17]: 17 µM

CC(N)CCCC(C)(C)O (stereo not drawn) [HEPTAMINOL]
IC50 [18]: 15.3 µM

CC1=C(C(=O)OCCCCCCCCCC[N+](C)(C)C)C(c2cccc3nonc23)C(C(=O)OC(C)C)=C(C)N1 (stereo not drawn)
IC50 [19]: 0.07 µM

COC(=O)C1=C(C)NC(C)=C(C(=O)OC2CCCN(Cc3ccccc3)C2)C1c1cccc([N+](=O)[O-])c1 (stereo not drawn) [BENIDIPINE]
IC50 [20]: 13.8 µM
IC50 [21]: 4.9 µM

CCCC(=O)N1CCCN(c2nc(N)c3cc(OC)c(OC)cc3n2)CC1 [BUNAZOSIN]
IC50 [22]: 60 µM

COc1ccc(CCN(C)CCCOc2ccc(S(=O)(=O)c3c(C(C)C)cn4ccccc34)cc2)cc1OC [FANTOFARONE]
IC50 [23]: 0.022 µM
IC50 [24]: 9 µM

CCOC(=O)C1=C(COCCN)NC(C)=C(C(=O)OC)C1c1ccccc1Cl (stereo not drawn) [AMLODIPINE]
IC50 [25]: 0.57 µM

CN1CCCC(n2nc(Cc3ccc(Cl)cc3)c3ccccc3c2=O)CC1 (stereo not drawn) [AZELASTINE]
IC50 [26]: 20.2 µM

CN(C)CCCN1c2ccccc2CCc2ccc(Cl)cc21 [CLOMIPRAMINE]
IC50 [14]: 11.6 µM
